{"source": "patent US12433876B2", "about": "“Septin inhibitors for treatment of cancers” (UNIVERSITY OF ROCHESTER, priority 2019, dated 2025)", "key": {"actin": {"system": "actin", "assay": "Confocal analysis of actin filaments (Phalloidin-TRITC)", "type": "cell-based", "conditions": "PANC-1 and JIMT1 cells, for 48 hours"}, "SKOV-3 xenograft tumors": {"system": "SKOV-3 xenograft tumors", "assay": "SKOV-3 xenograft tumor growth", "type": "in vivo, NSG mice", "method": "NSG mice 356 were implanted in their left flank with 1 million PANC-1 (HER2+, n=12), JIMT1 (number of animals=10) and SKOV-3 (number of animals=10) cells each in matrigel:media (1:1). […] The vehicle formulation was: 40% Hydroxypropyl-beta-cyclodextrin [Acros Organics] & solutol HS15 (Sigma] in sterile water). 25 mg/kg equivalent of UR214-9 (1 uL=200 ug in DMSO) was dissolved in 600 uL PBS+400 uL of the vehicle and vortexed to obtain a clear suspension."}, "septin-7": {"molecular_target": "T1, septin-7 (Homo sapiens, UniProt Q16181)", "T1 construct": "investigate the response of other septin family members in PANC-1 cells upon treatment with UR214-9; endogenous in cells; host or cells: PANC-1, JIMT-1, SKOV-3 (confocal); PANC-1 (immunoblot)", "T1 sequence (Q16181 whole entry)": "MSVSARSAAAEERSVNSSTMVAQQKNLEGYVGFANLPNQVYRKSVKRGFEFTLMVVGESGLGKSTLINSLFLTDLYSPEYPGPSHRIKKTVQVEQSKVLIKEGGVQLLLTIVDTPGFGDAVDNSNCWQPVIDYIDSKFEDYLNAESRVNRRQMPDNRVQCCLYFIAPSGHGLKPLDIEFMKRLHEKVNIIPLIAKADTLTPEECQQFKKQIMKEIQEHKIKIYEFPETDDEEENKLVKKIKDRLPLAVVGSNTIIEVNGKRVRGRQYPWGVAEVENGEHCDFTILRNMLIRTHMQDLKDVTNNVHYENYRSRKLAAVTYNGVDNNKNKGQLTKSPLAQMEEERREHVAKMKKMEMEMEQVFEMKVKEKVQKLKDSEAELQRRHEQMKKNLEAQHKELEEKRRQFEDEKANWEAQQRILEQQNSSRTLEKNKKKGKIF", "assay": "Confocal analysis of septin-7", "type": "cell-based", "conditions": "PANC-1 cells"}, "BXPC-3 cells": {"system": "BXPC-3 cells", "assay": "Live/Dead dye flow cytometry, BXPC-3", "type": "cell-based, human", "conditions": "BXPC-3, 3 μM, 48 hours", "description": "(§1) Cell Lines, Cell Culture, and Reagents. PANC-1, BXPC-3 and CAPAN-1, SKOV-3, MCF7, MDA-MD-231 cells were obtained from ATCC and maintained in DMEM, RPMI-1640 and IMDM supplemented with 10% fetal calf serum penicillin (100 units/mL), and streptomycin (100 μg/mL) at 37° C. with 5% CO2 in a humidified incubator. JIMT-1 cells were purchased from AddexBio Inc, USA (catalog number: C0006005) and maintained in 10% FBS and antibiotic supplemented DMEM. […] The reaction was monitored using thin-layer chromatography plates with DCM-MeOH or pure ethyl acetate as eluent. Spots were monitored in a UV chamber. […] ICM scores for each compound and their poses were calculated and compared with FCF. […] Cell viability of PANC-1, BXPC-3 and CAPAN-1 pancreatic cancer cells treated with UR214-9 was measured using the Cell Titre96R Aqueous One Solution Cell Proliferation Assay (Promega Corp., catalog number: G3580) following the procedure published earlier. […] The cells were analyzed by a 305 flow cytometer and relative live and dead cell population was calculated by inputting equal number of cells in both vehicle and control group."}, "[1]": {"system": "JIMT-1 breast cancer cells", "assay": "RNA-Seq whole transcriptome analysis, JIMT-1", "type": "cell-based, human", "conditions": "10 nM Afatinib, 1 μM UR214-9"}, "[2]": {"system": "human pancreatic cancer cells (BXPC-3 and PANC-1)", "assay": "MTS cell viability, pancreatic cancer cells", "type": "cell-based", "description": "as §1"}}, "data": [{"smiles": "O=C(Nc1cc(Cl)nc(Cl)c1)Nc1cccc(SC(F)(F)F)c1F", "note": "[UR214-9]", "values": [{"measurement": "actin filaments", "setting": "actin", "value": "actin filament disruption"}, {"measurement": "tumor growth during treatment", "setting": "SKOV-3 xenograft tumors; UR214-9 25 mg/kg, M-F, I.P., trastuzumab 10 mg/kg, M", "value": "controlled the growth of tumors"}, {"measurement": "weight of extracted tumors", "setting": "SKOV-3 xenograft tumors; day 53 since inoculation", "value": "matched the average size seen in vehicle group"}, {"measurement": "tumor size after treatments were stopped", "setting": "SKOV-3 xenograft tumors; treatment stopped on day 27", "value": "reached the average size in control"}, {"measurement": "septin-7 (confocal)", "setting": "septin-7", "value": "reduced expression"}, {"measurement": "dead cells", "setting": "BXPC-3 cells", "value": 29.4, "unit": "%"}, {"measurement": "dysregulated genes, down", "setting": "[1]", "value": 4}, {"measurement": "dysregulated genes, up", "setting": "[1]", "value": 7}, {"measurement": "viability", "setting": "[2]; BXPC-3 and PANC-1, 72 hours of treatment", "value": "reduced the viability"}, {"measurement": "growth (MTS assay), dose dependently", "setting": "[2]; BXPC-3 and PANC-1, by 48th hour of drug exposure", "value": "reduced the growth"}]}]}
